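All cell lines were grown in 96-well plates and treated with compound for 48 hours. GI50 marks 50% less growth. TGI is the concentration that stops growth completely.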

Common to all, as to experiment: NCI-60 cell line screen, 48 h
Experiment [1] concerns K-562 leukemia.
Experiment [2] concerns SF-268 CNS.
In experiment [3] the test system is COLO 205 colon.
Experiment [4] concerns UO-31 renal.
The subject of experiment [5] is MCF7 breast.
Experiment [6] deals with MALME-3M melanoma.
Experiment [7] has as its system ACHN renal.
Experiment [8] concerns OVCAR-4 ovarian.
Experiment [9] has as its system M14 melanoma.
The subject of experiment [10] is HCC-2998 colon.

As for `CCCCOC1OC(COC(=O)C(C)C)C(OC(=O)C(C)C)C(O)C1OC1OC(C)C(OC(=O)CCC)C(OC(=O)C(C)C)C1O` (stereo not drawn), the GI50 in experiment [1] is 3.09 µM; in [2], 12.2 µM; in [3] it was 13.1 µM; in experiment [4], 16.8 µM; in experiment [5], 8.4 µM; in experiment [6], 19.5 µM. Besides, the GI50 in [7] is 14.9 µM; in [8], 15.1 µM. Moreover, the TGI in experiment [1] worked out at 14.3 µM; in [2] it was 29 µM; in experiment [3], 25.8 µM; in [4], 32.2 µM; in experiment [5] it was 61.6 µM; in experiment [6], 35.2 µM. In addition, the TGI is 28.1 µM in [7] and 30.4 µM in experiment [8].
Consider `COc1cc(C(C)O)c[n+](CCC2CNc3ccccc32)c1` (stereo not drawn), for which the TGI in experiment [1] was above 100 µM; in experiment [2], 93 µM; in experiment [3] it was above 100 µM; in experiment [9], above 100 µM; in [4] it was above 100 µM; in experiment [10], above 100 µM. Besides, the TGI in experiment [6], in [7] and in [8] was above 100 µM each time.
Turning to `CC(=O)c1ccc(NC(=O)C(=O)C(C#N)CC(C)(C)C=O)cc1` (stereo not drawn), the TGI in experiment [1], in [2], in experiment [3], in [9], in experiment [4] and in experiment [10] was above 100 µM in each case. In addition, the TGI in [6], in [7] and in experiment [8] was above 100 µM each time.
Turning to `COc1ccc(NC(=O)CC(=O)n2nc(C)c(N=Nc3ccccc3C(=O)O)c2C)cc1`, the TGI in experiment [1], in experiment [2], in [3], in experiment [9], in [4] and in [10] was above 100 µM each time. Further, the TGI in [6] and in [8] was above 100 µM throughout.
In the case of `C=C(C(=C)P(=S)(C(C)C)C(C)C)P(=S)(C(C)C)C(C)C`, the TGI in [1], in experiment [2], in experiment [3], in experiment [9], in experiment [4] and in experiment [10] was above 100 µM each time. Moreover, the TGI in experiment [6], in experiment [7] and in experiment [8] was above 100 µM in each case.
For `Cc1c2c(c(C)c3c1[nH]c1ccccc13)CN(C)CC2`, the TGI in experiment [1] was above 100 µM; in [2], 47.6 µM; in [3], 28.6 µM; in experiment [9], 28.4 µM; in [4] it was 53 µM; in experiment [10] it was 31.2 µM. In addition, the TGI in experiment [6] is 30.3 µM; in experiment [7] it was 35.7 µM; in experiment [8], above 100 µM.
`OCCN(CCO)c1cccc(N(CCO)CCO)n1`: the TGI in experiment [1], in experiment [2], in [3], in [9], in [4] and in experiment [7] was above 100 µM in each case. For the same compound, the TGI in [8] was above 100 µM.
Consider `c1ccc(OCc2nnc3n2N=C(c2ccccc2)CS3)cc1`, for which the TGI in [1], in experiment [2], in [9], in experiment [4], in experiment [10] and in experiment [6] was above 100 µM in each case. Moreover, the TGI in experiment [7] and in experiment [8] was above 100 µM in each case.
In the case of `CC(=O)c1ccc(NC(=O)COC(=O)c2cccc3c(=O)c4ccccc4[nH]c23)cc1`, the TGI in experiment [1], in [2], in experiment [3], in experiment [9], in experiment [4] and in experiment [10] was above 100 µM in each case. The TGI in [6] was above 100 µM; in experiment [7], above 100 µM; in [8], 25.9 µM.
With `COc1cccc(SSc2cccc(OC)c2C(=O)O)c1C(=O)O`, the TGI in [1], in experiment [2], in experiment [3], in experiment [9], in experiment [4] and in experiment [6] was above 100 µM each time. The TGI in [7] and in [8] was above 100 µM throughout.
Turning to `Cl.Fc1c[c-]c(-c2ccccn2)c(F)c1.[Pt].c1ccc([PH+](C[PH+](c2ccccc2)c2ccccc2)c2ccccc2)cc1`, the GI50 in [1] is 0.0483 µM; in experiment [9] it was 0.314 µM; in experiment [5], 0.198 µM; in experiment [7] it was 0.218 µM; in experiment [8], 0.267 µM. In addition, the TGI in experiment [1] was 0.573 µM; in [9], 1.02 µM; in [5] it was 1.12 µM; in experiment [7], 0.463 µM; in [8], 0.927 µM.
As for `Cc1ccc(NC(=O)CCc2n[nH]c(=S)o2)cc1`, the TGI in [1], in experiment [2], in [3], in experiment [9], in experiment [4] and in experiment [10] was above 100 µM in each case. In addition, the TGI in experiment [6], in [7] and in [8] was above 100 µM each time.
As for `O=c1c2cc3c(cc2c2cccc4c2n1CCC4)OCO3`, the TGI in experiment [1], in experiment [3], in experiment [9], in experiment [4], in [10] and in experiment [6] was above 100 µM throughout. For the same compound, the TGI in experiment [7] and in [8] was above 100 µM each time.
In the case of `COc1cc2ccnc3c(=C(SC)SC)c(=O)c(c1OC)c23`, the TGI was determined as 16.3 µM in experiment [1]; 60.3 µM in experiment [2]; 10.5 µM in experiment [3]; 28.3 µM in experiment [9]; 29.3 µM in [4]; 32.6 µM in experiment [10]. In addition, the TGI is 24.7 µM in experiment [6], 26 µM in experiment [7] and 30.2 µM in experiment [8].

These data come from PubChem BioAssay (NCI).
